Source: US20140065632A1, “MARKER GENE FOR DETECTION OF TUMOR PROMOTER, AND METHOD FOR DETECTION OF TUMOR PROMOTER” (priority 2007, published 2014)
Where two headings read alike, the source gives them in different places.

Experiments:
[1] = system: BALB/c 3T3 cells; parameters: focus formation ability (intensity of the tumor-promoting activity): key to the marks not given beside the values
[2] = system: Orm1; test: Quantitative RT-PCR of Orm1 gene expression in the BALB/c 3T3 cell transformation assay; assay type: cell-based, mouse
[3] = system: Bhas cells
[4] = Example 3, MCA-initiated BALB/c 3T3 cells, RNA 48 hours after addition of test substance, normalized by β-actin

CC(C)[C@@H]1CC[C@@H](C)C[C@H]1O (racemic) [dl-menthol, DL-menthol]
Focus formation in the BALB/c 3T3 cell transformation assay [1]: −
ability to form foci in the BALB/c 3T3 cell transformation assay [1]: unable to form foci
Expression level of Orm1 (rates relative to the negative control) [2, 4]: 0.9

O=[N+]([O-])c1cccc2ccccc12 [1-nitronaphthalene]
Focus formation in the BALB/c 3T3 cell transformation assay [1]: −
ability to form foci in the BALB/c 3T3 cell transformation assay [1]: unable to form foci

c1ccc2cc3c(ccc4ccccc43)cc2c1 [Benz[a]anthracen, benz[a]anthracene]
Focus formation in the BALB/c 3T3 cell transformation assay [1]: −
ability to form foci in the BALB/c 3T3 cell transformation assay [1]: unable to form foci

c1ccc2c(c1)ccc1c3ccccc3ccc21 [Chrysene, chrysene]
Focus formation in the BALB/c 3T3 cell transformation assay [1]: −
ability to form foci in the BALB/c 3T3 cell transformation assay [1]: unable to form foci
ability to form foci in the Bhas cellular transformation assay [3]: able to form foci

OC[C@@H](O)[C@@H](O)[C@H](O)[C@H](O)CO [D-mannitol]
Focus formation in the BALB/c 3T3 cell transformation assay [1]: −
ability to form foci in the BALB/c 3T3 cell transformation assay [1]: unable to form foci

C[C@H](CCC(=O)O)[C@H]1CC[C@H]2[C@@H]3CC[C@@H]4C[C@H](O)CC[C@]4(C)[C@H]3CC[C@]12C [Lithocholic acid, lithocholic acid]
Focus formation in the BALB/c 3T3 cell transformation assay [1]: +
ability to form foci in the BALB/c 3T3 cell transformation assay [1]: able to form foci
ability to form foci in the Bhas cellular transformation assay [3]: able to form foci

C=C(C)[C@@]12O[C@@]3(c4ccccc4)O[C@@H]1[C@@H]1[C@@H]4O[C@]4(CO)[C@@H](O)[C@]4(O)C(=O)C(C)=C[C@H]4[C@@]1(O3)[C@H](C)[C@H]2OC(=O)/C=C/C=C/c1ccccc1 [Mezerein, mezerein]
Focus formation in the BALB/c 3T3 cell transformation assay [1]: +
ability to form foci in the BALB/c 3T3 cell transformation assay [1]: able to form foci
focus formation ability (intensity of the tumor-promoting activity) [1]: +++
ability to form foci in the Bhas cellular transformation assay [3]: able to form foci
Expression level of Orm1 (rates relative to the negative control) [2]: 2.6

C=C1[C@@H](O)[C@@H]2O[C@]3(CC[C@H](/C=C/[C@@H](C)[C@@H]4CC(C)=C[C@@]5(O[C@H](C[C@@](C)(O)C(=O)O)CC[C@H]5O)O4)O3)CC[C@H]2O[C@@H]1[C@@H](O)C[C@H](C)[C@H]1O[C@@]2(CCCCO2)CC[C@H]1C [Okadaic acid, okadaic acid]
Focus formation in the BALB/c 3T3 cell transformation assay [1]: +
ability to form foci in the BALB/c 3T3 cell transformation assay [1]: able to form foci
focus formation ability (intensity of the tumor-promoting activity) [1]: +++

c1cc2cccc3c4cccc5cccc(c(c1)c23)c54 [Perylene, perylene]
Focus formation in the BALB/c 3T3 cell transformation assay [1]: −
ability to form foci in the BALB/c 3T3 cell transformation assay [1]: unable to form foci
ability to form foci in the Bhas cellular transformation assay [3]: able to form foci

CCC1(c2ccccc2)C(=O)NC(=O)NC1=O [Phenobarbital sodium, phenobarbital sodium]
Focus formation in the BALB/c 3T3 cell transformation assay [1]: +
ability to form foci in the BALB/c 3T3 cell transformation assay [1]: able to form foci
focus formation ability (intensity of the tumor-promoting activity) [1]: ++

O=C1NS(=O)(=O)c2ccccc21.[Na] [Saccharin sodium, saccharin sodium]
Focus formation in the BALB/c 3T3 cell transformation assay [1]: +
ability to form foci in the BALB/c 3T3 cell transformation assay [1]: able to form foci
focus formation ability (intensity of the tumor-promoting activity) [1]: ++

O=[As]O [Sodium arsenite, sodium arsenite]
Focus formation in the BALB/c 3T3 cell transformation assay [1]: +
ability to form foci in the BALB/c 3T3 cell transformation assay [1]: able to form foci
focus formation ability (intensity of the tumor-promoting activity) [1]: ++

O=C1O[C@H]([C@@H](O)CO)C([O-])=C1O.[Na+] [Sodium ascorbate, sodium ascorbate]
Focus formation in the BALB/c 3T3 cell transformation assay [1]: −
ability to form foci in the BALB/c 3T3 cell transformation assay [1]: unable to form foci

[Na+].[Na+].[Na+].[O]=[V]([O-])([O-])[O-] [Sodium orthovanadate, sodium orthovanadate]
Focus formation in the BALB/c 3T3 cell transformation assay [1]: +
ability to form foci in the BALB/c 3T3 cell transformation assay [1]: able to form foci
focus formation ability (intensity of the tumor-promoting activity) [1]: +++
Expression level of Orm1 (rates relative to the negative control) [2]: 1.5

CC(C)(C)c1cc(O)ccc1O [TBHQ, tert-butylhydroquinone]
Focus formation in the BALB/c 3T3 cell transformation assay [1]: −
ability to form foci in the BALB/c 3T3 cell transformation assay [1]: unable to form foci
ability to form foci in the Bhas cellular transformation assay [3]: able to form foci

CCCCCCCCCCCCCC(=O)O[C@@H]1[C@@H](C)[C@@]2(O)[C@@H](C=C(CO)C[C@]3(O)C(=O)C(C)=C[C@@H]23)[C@@H]2C(C)(C)[C@]12OC(C)=O [TPA, phorbol 12-myristate 13-acetate]
Focus formation in the BALB/c 3T3 cell transformation assay [1]: +
ability to form foci in the BALB/c 3T3 cell transformation assay [1]: able to form foci
focus formation ability (intensity of the tumor-promoting activity) [1]: +++
focus formation in the BALB/c 3T3 cell transformation assay [1]: Significant focus formation was observed
ability to form foci in the Bhas cellular transformation assay [3]: able to form foci
Expression level of Orm1 (rates relative to the negative control) [2]: 2.3

[Cl-].[Cl-].[Zn+2] [Zinc chloride, zinc chloride]
Focus formation in the BALB/c 3T3 cell transformation assay [1]: +
ability to form foci in the BALB/c 3T3 cell transformation assay [1]: able to form foci
focus formation ability (intensity of the tumor-promoting activity) [1]: +++
focus formation in the BALB/c 3T3 cell transformation assay [1]: Significant focus formation was observed
ability to form foci in the Bhas cellular transformation assay [3]: able to form foci
Expression level of Orm1 (rates relative to the negative control) [2]: 3.4

COc1ccc(O)c(C(C)(C)C)c1 [butylhydroxyanisol]
focus formation ability (intensity of the tumor-promoting activity) [1]: ++

insulin
Focus formation in the BALB/c 3T3 cell transformation assay [1]: +
ability to form foci in the BALB/c 3T3 cell transformation assay [1]: able to form foci
focus formation ability (intensity of the tumor-promoting activity) [1]: ++
ability to form foci in the Bhas cellular transformation assay [3]: able to form foci
Expression level of Orm1 (rates relative to the negative control) [2, 4]: 2.0
